Reference: PubChem BioAssay AID179 (DTP/NCI, 2004)
Activity calls are given as the source filed them.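 Rule for the calls: active = compounds giving half or more protection of infected cells from virus-caused growth loss, again on retest; inactive = the rest.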 *1 amine or outer side, *2 acyl side, *3 side chain or, on linkers, in order; H or OH if unused. Where a SMILES comes first, the peptide text is derived from it. Bridges are numbered along the chain shown (N, C = ends). [ ]: non-standard residue; d: D form. The star is where a group is joined. ξ: configuration not given here. Fmoc = O=C(OCC1c2ccccc2-c2ccccc21)*; X2 = O=C(C(CCCCNO[*:3])N[*:1])[*:2]; ξW = NC(Cc1c[nH]c2ccccc12)C(=O)O; ξP = O=C(O)C1CCCN1

System: CEM cells HIV-1 protection, formazan growth assay
Test: NCI AIDS Antiviral Assay
Details: for IC50: measured here: growth of uninfected CEM cells
Procedure, shortened: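 Human CEM cells, uninfected and HIV-1-infected, exposed to five drug concentrations; growth measured by soluble formazan assay and scored as percent protection from infection, with protecting compounds retested.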

Structure (SMILES)	EC50	outcome	IC50
O=C(N/N=C(/CCN1CCCC1)CC(c1ccccc1)c1c(O)c2ccccc2oc1=O)c1ccncc1 (stereo not given)	> 34.7 µM		
Cc1cc(O)c2c(c1)C(C13Cc4cc(O)c5c(c4[C@H]1C=C[C@@H](O)[C@H]3O)C(=O)c1cccc(O)c1C5=O)OC2=O (stereo not given in full)		inactive	
C[CH2][Sn]([CH2]C)([O]C(=O)c1ccc(OC)c(OC)c1OC)[O]C(=O)c1ccc(OC)c(OC)c1OC	> 83.2 µM		7.59 µM
CC/C=N\N1C(N)=C(C#N)C(C#N)(C#N)C1CC (stereo not given)	> 200 µM		64.6 µM
Cc1ccc(C(=O)/C=C/c2ccc(N(C)C)cc2)cc1	> 7.59 µM		> 7.59 µM
COC(=O)C(=O)C(C#N)c1cccc(O)c1C(=O)OC (stereo not given)	> 36.3 µM		> 36.3 µM
CN1CCc2cc(O)c3cc2C1Cc1ccc(cc1)Oc1cc(ccc1OC(=O)C(C)(C)C)CC1c2c(cc(OC(=O)C(C)(C)C)c(OC(=O)C(C)(C)C)c2O3)CCN1C (stereo not given)		inactive	
Clc1ccc(CN2COc3c(cc(Cl)c4cccnc34)C2)cc1	> 64.6 µM		1.26 µM
CC(=O)Nc1ccc(/C=C2/SC(=S)N(/C=C(\c3ccccc3)S(=O)Cc3ccccc3)C2=O)cc1 (stereo not given)	> 200 µM		89.1 µM
Cc1cn(C2CC(O[Si](C)(C)C(C)(C)C)C(CNC(=O)N(O)C3CC(n4cc(C)c(=O)[nH]c4=O)OC3CO[Si](C)(C)C(C)(C)C)O2)c(=O)[nH]c1=O (stereo not given)	> 200 µM		2.09 µM
CC1(C)c2ccccc2N2O[C@@H]3C(=O)N(c4ccccc4)C(=O)[C@@H]3C21c1ccccc1 (stereo not given in full)	> 36.3 µM		> 36.3 µM
C(#CC1(Nc2ccccc2)CCN(Cc2ccccc2)CC1)C1(Nc2ccccc2)CCN(Cc2ccccc2)CC1	> 100 µM		74.1 µM
CCOC(=O)c1[nH]n(-c2ccccc2)c(=O)c1/C=N/C(=S)Nc1ccccc1OC	> 200 µM		93.3 µM
O=C1CCC(c2ccc(Cl)cc2)=NN1c1nsc2ccccc12	> 39.8 µM		> 39.8 µM
O=[N+]([O-])c1ccc(/C=C/c2ccc(/C=C/c3ccc([N+](=O)[O-])cc3[N+](=O)[O-])cc2)c([N+](=O)[O-])c1		inactive	
CCOC(=O)C(=Cc1cccc(Br)c1)C(=O)OCC	> 759 µM		468 µM
CN(C)CCSc1nc(-c2cccs2)c2ccccc2n1	> 115 µM		26.3 µM
O=C(OCCSSCCOC(=O)c1ccc([N+](=O)[O-])cc1)c1ccc([N+](=O)[O-])cc1	> 200 µM		12 µM
O=c1cc2[nH]cnc2c(O)[nH]1	> 89.1 µM		> 89.1 µM
COc1cccc2c1CCc1cc3c(N)nc(N)nc3nc1-2	> 200 µM		5.25 µM

Structure (SMILES)	EC50	outcome	IC50
CCCCC[C@H](O)[C@H](C)C=C1SCCCS1	> 200 µM		97.7 µM
N#CN(CS(=O)(=O)O)C(=N)N	> 200 µM		> 200 µM
CC(C)(C)C1CCC2(CC1)CCN(CCCN1CCOCC1)CC2	> 55 µM		12.3 µM
O=C(Nc1cc(Cl)cc(Cl)c1)/C(Cc1nc2ccccc2[nH]c1=O)=N/NC(=O)c1ccncc1	> 132 µM		> 132 µM
CC(=O)OC1=C(C)S(=O)(=O)c2ccccc21	> 200 µM		> 200 µM
CCC(C)C(NC(=O)C(N)CCC(=O)O)C(=O)NC(CCCCN)C(=O)NCC(=O)NC(C(=O)NC(C(=O)NC(CC(N)=O)C(=O)NC(CC(C)C)C(=O)NCC(=O)NC(CCCCN)C(=O)O)C(C)O)C(C)O (stereo not given) (H-EIKGTTNLGK-OH; configuration not given here)		inactive	
Nc1cc(=O)[nH][nH]1	> 200 µM		> 200 µM
CC(=O)OC1(C#N)CC2OC1C1NC21 (stereo not given)	> 676 µM		> 676 µM
O=C(N/N=C/c1cc(-c2ccccc2Cl)c(-c2ccccc2Cl)o1)c1ccncc1	> 12 µM		> 12 µM
N#Cc1ccccc1NC(=O)/C(=N\NC(=O)c1ccncc1)C(c1cnc2ccc([N+](=O)[O-])cc2n1)[N+](=O)[O-] (stereo not given)	> 479 µM		191 µM
COC(=O)c1ccccc1CC1Cc2ccc3c(c2C1)CCC3 (stereo not given)	> 200 µM		91.2 µM
COc1ccc2c3c([nH]c2c1)CCN(Cc1ccccc1)C3	> 200 µM		45.7 µM
CCn1cc(C(=O)O)c(=O)c2cc(Cl)c(-n3cccc3)cc21		inactive	
N#CS/C(C(Cl)=C(Cl)Cl)=C(/Cl)[N+](=O)[O-]	> 200 µM		8.32 µM
O=C(c1c(F)c(F)c(F)c(F)c1F)n1c(=O)[nH]c2ccccc21	> 200 µM		10.7 µM
CC(C)(C)OC(=O)C1CCC/C1=N/Nc1ccc([N+](=O)[O-])cc1[N+](=O)[O-] (stereo not given)	> 200 µM		30.2 µM
CCC(=O)NC(Nc1ccc(O)cc1)(C(F)(F)F)C(F)(F)F	> 200 µM		46.8 µM
O=C1/C(=C\c2ccccc2)CN(C(=O)CCN2CCCCC2)C/C1=C/c1ccccc1	> 151 µM		0.794 µM
NC(=O)CNC(=O)C1CCCN1C(=O)C1CCCCNOC(=O)CC[C@@H](NC(=O)OCC2c3ccccc3-c3ccccc32)C(=O)NC(Cc2c[nH]c3ccccc23)C(=O)N1 (stereo not given in full) (Fmoc-[dE][ξW][X2][ξP]G-NH2; ester 1-3)	> 100 µM		> 100 µM
COc1ccc2oc3cc(O)cc(OC)c3c(=O)c2c1O	> 200 µM		145 µM

Structure (SMILES)	EC50	outcome	IC50
Oc1ccccc1/C=N/N=C/c1ccccc1O	> 200 µM		> 200 µM
COc1cc(C2=NN(C)C(c3ccc([N+](=O)[O-])o3)C2)cc(OC)c1OC (stereo not given)	> 83.2 µM		32.4 µM
CC1(C)CC(C#Cc2ccccc2)CC(C)(C)N1O	> 200 µM		34.7 µM
Cc1cn(C2C=CC(COP(=O)(OCC(=O)C(C)(C)C)OCC(=O)C(C)(C)C)O2)c(=O)[nH]c1=O (stereo not given)	1.29 µM		> 200 µM
CC(=O)NNc1nc(C)c(C(=O)/C=C/c2cccc([N+](=O)[O-])c2)s1	70.8 µM		75.9 µM
CC(C)=CCC1(c2ccccc2)Oc2ccccc2-n2cccc2C1=O (stereo not given)	> 200 µM		138 µM
CCNC(=O)COc1cc2c(O)c3c(O)c(C)c4c(c13)C(=O)C(C)(O/C=C/C(OC)C(C)C(OC(C)=O)C(C)C(O)C(C)C(O)C(C)/C=C/C=C(\C)C(=O)N2)O4 (stereo not given)	> 200 µM		83.2 µM
S=C1CC(=S)NC(=S)N1	> 513 µM		> 513 µM
c1ccc(SC(Sc2ccccc2)=C2CCC2)cc1		inactive	
CC(=O)OC12CC[N+]3(C)CCCCC3C1=Nc1ccccc12 (stereo not given)	> 589 µM		479 µM
C(=C\C(SCc1ccccc1)SCc1ccccc1)/c1ccccc1	> 200 µM		> 200 µM
CN1CCN(C(=S)N(C(=O)c2cccs2)c2ccccc2)CC1	> 105 µM		> 105 µM
CC1CCC/C(=N/NC(N)=O)C12CC2 (stereo not given)	> 200 µM		> 200 µM
COc1ccc(C2c3cc(O)c(OC)cc3Oc3cc(OC)c(O)cc32)cc1	> 200 µM		8.51 µM
C1CCCC(N2N=NC3C4CC(C5N=NN(C6CCCCCC6)C45)C32)CC1 (stereo not given)	> 200 µM		> 200 µM
NC(CCCNCc1ccccc1)C(=O)O (stereo not given)	> 562 µM		> 562 µM
CNCc1c(S)ccc2ccccc12		inactive	
CCOP(=O)(OCC)C(Nc1cccc([N+](=O)[O-])c1)c1ccccc1 (stereo not given)	> 200 µM		174 µM
Cc1cc(C)c(C2=[N+]([O-])ON3CCc4ccccc4C23)c(C)c1 (stereo not given)	> 115 µM		> 115 µM
